# In patent US7161032B2, “Sulfonamide derivatives, insecticides for agricultural and horticultural use, and usage thereof” (Nihon Nohyaku Co., Ltd., priority 2002, dated 2007):
# What was measured:
# Type in all cases: in vivo
# [1] = system: Diamond Back Moth (Plutella xylostella); assay: Insecticidal effect on diamond back moth (Test Example 1): egg-bearing Chinese cabbage seedling immersed in 50 ppm liquid chemical
# Outline: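 Seedlings bearing 2-day-old eggs dipped about 30 s in 50 ppm formulated compound, air-dried, held at 25° C. Hatched larvae counted 6 days after immersion; mortality calculated and graded by criterion. Triplicate groups of 10 insects.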
# [2] = system: Common Cutworm (Spodoptera litura); assay: Insecticidal effect on common cutworm (Test Example 2): cabbage leaf piece immersed in 50 ppm liquid chemical; settings: common cutworm (Spodoptera litura) second-instar larvae, 8 days after inoculation, 25° C.
# Outline: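 Cabbage leaf pieces (cv. Shikidori) dipped ~30 s in formulated compound at 50 ppm and air-dried. Second-instar larvae added, kept at 25° C. Dead and alive counted at 8 days to give % mortality, scored against a criterion scale; three groups of 10 insects.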
# [3] = system: Smaller Tea Tortrix (Adoxophyes sp.); assay: Insecticidal effect on smaller tea tortrix (Test Example 3): tea leaves immersed in 50 ppm liquid chemical; settings: smaller tea tortrix (Adoxophyes sp.) larvae, 8 days after inoculation, 25° C., humidity 70%
# Outline: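 Tea leaves dipped about 30 seconds in 50 ppm compound preparation, air-dried, then infested with larvae and held at 25° C and 70% humidity. Dead and alive counted 8 days after inoculation; triplicate groups of 10 insects.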
compound,measurement,setting,value
Cc1cc(C(F)(C(F)(F)F)C(F)(F)F)ccc1NC(=O)c1cccc(I)c1C(=O)NC(C)(C)CS(=O)(=O)NCCS(C)(=O)=O [1-83],"Insecticidal effect (mortality grade), Test Example 1",[1],A (Mortality 100%)
same,"Insecticidal effect (mortality grade), Test Example 2",[2],A (Mortality 100%)
same,"Insecticidal effect (mortality grade), Test Example 3",[3],A (Mortality 100%)
Cc1cc(C(F)(C(F)(F)F)C(F)(F)F)ccc1NC(=O)c1cccc(I)c1C(=O)NC(C)CS(=O)(=O)N1CC[S+]([O-])CC1 (stereo not drawn) [1-56],"Insecticidal effect (mortality grade), Test Example 1",[1],A (Mortality 100%)
same,"Insecticidal effect (mortality grade), Test Example 2",[2],A (Mortality 100%)
same,"Insecticidal effect (mortality grade), Test Example 3",[3],A (Mortality 100%)
Cc1cc(C(F)(C(F)(F)F)C(F)(F)F)ccc1NC(=O)c1cccc(I)c1C(=O)NC(C)CS(=O)(=O)NCc1ccccc1F (stereo not drawn) [1-23],"Insecticidal effect (mortality grade), Test Example 1",[1],A (Mortality 100%)
same,"Insecticidal effect (mortality grade), Test Example 2",[2],A (Mortality 100%)
same,"Insecticidal effect (mortality grade), Test Example 3",[3],A (Mortality 100%)
Cc1cc(C(F)(C(F)(F)F)C(F)(F)F)ccc1NC(=O)c1cccc(I)c1C(=O)NC(C)CS(=O)(=O)NCc1ccccn1 (stereo not drawn) [1-39],"Insecticidal effect (mortality grade), Test Example 1",[1],A (Mortality 100%)
same,"Insecticidal effect (mortality grade), Test Example 2",[2],A (Mortality 100%)
same,"Insecticidal effect (mortality grade), Test Example 3",[3],A (Mortality 100%)
Cc1cc(C(F)(C(F)(F)F)C(F)(F)F)ccc1NC(=O)c1cccc(I)c1C(=O)NC(C)CS(=O)(=O)NCc1ccc([N+](=O)[O-])cc1 (stereo not drawn) [1-36],"Insecticidal effect (mortality grade), Test Example 1",[1],A (Mortality 100%)
same,"Insecticidal effect (mortality grade), Test Example 2",[2],A (Mortality 100%)
same,"Insecticidal effect (mortality grade), Test Example 3",[3],A (Mortality 100%)
CONS(=O)(=O)CC(C)NC(=O)c1c(I)cccc1C(=O)Nc1ccc(C(F)(C(F)(F)F)C(F)(F)F)cc1C (stereo not drawn) [1-116],"Insecticidal effect (mortality grade), Test Example 1",[1],A (Mortality 100%)
same,"Insecticidal effect (mortality grade), Test Example 2",[2],D (Mortality 79–50%)
same,"Insecticidal effect (mortality grade), Test Example 3",[3],A (Mortality 100%)
CSCCNS(=O)(=O)CC(C)(C)NC(=O)c1c(I)cccc1C(=O)Nc1ccc(C(F)(C(F)(F)F)C(F)(F)F)cc1C [1-81],"Insecticidal effect (mortality grade), Test Example 1",[1],A (Mortality 100%)
same,"Insecticidal effect (mortality grade), Test Example 2",[2],A (Mortality 100%)
same,"Insecticidal effect (mortality grade), Test Example 3",[3],A (Mortality 100%)
Cc1cc(C(F)(C(F)(F)F)C(F)(F)F)ccc1NC(=O)c1cccc(I)c1C(=O)NC(C)CS(=O)(=O)N[C@@H](C)c1ccccc1 (stereo partly drawn) [1-46],"Insecticidal effect (mortality grade), Test Example 1",[1],A (Mortality 100%)
same,"Insecticidal effect (mortality grade), Test Example 2",[2],A (Mortality 100%)
same,"Insecticidal effect (mortality grade), Test Example 3",[3],A (Mortality 100%)
CCN(CC)S(=O)(=O)CC(C)(C)NC(=O)c1c(I)cccc1C(=O)Nc1ccc(Cl)c(Cl)c1Cl [1-268],"Insecticidal effect (mortality grade), Test Example 1",[1],A (Mortality 100%)
same,"Insecticidal effect (mortality grade), Test Example 2",[2],A (Mortality 100%)
same,"Insecticidal effect (mortality grade), Test Example 3",[3],A (Mortality 100%)
Cc1cc(C(F)(C(F)(F)F)C(F)(F)F)ccc1NC(=O)c1cccc(I)c1C(=O)NC(C)CS(=O)(=O)NC(C)(C)Cc1ccccc1 (stereo not drawn) [1-48],"Insecticidal effect (mortality grade), Test Example 1",[1],A (Mortality 100%)
same,"Insecticidal effect (mortality grade), Test Example 2",[2],C (Mortality 89–80%)
same,"Insecticidal effect (mortality grade), Test Example 3",[3],A (Mortality 100%)
CCNS(=O)(=O)CCCC(C)(C)NC(=O)c1c(I)cccc1C(=O)Nc1ccc(C(F)(C(F)(F)F)C(F)(F)F)cc1C [1-200],"Insecticidal effect (mortality grade), Test Example 1",[1],A (Mortality 100%)
same,"Insecticidal effect (mortality grade), Test Example 2",[2],A (Mortality 100%)
same,"Insecticidal effect (mortality grade), Test Example 3",[3],A (Mortality 100%)
Cc1cc(C(F)(C(F)(F)F)C(F)(F)F)ccc1NC(=O)c1cccc(I)c1C(=O)NC(C)(C)CS(=O)(=O)N1CCSCC1 [1-58],"Insecticidal effect (mortality grade), Test Example 1",[1],A (Mortality 100%)
same,"Insecticidal effect (mortality grade), Test Example 2",[2],A (Mortality 100%)
same,"Insecticidal effect (mortality grade), Test Example 3",[3],E (Mortality less than 50%)
Cc1cc(C(F)(C(F)(F)F)C(F)(F)F)ccc1NC(=O)c1cccc(I)c1C(=O)NC(C)CS(=O)(=O)Nc1ccc(F)cc1 (stereo not drawn) [1-110],"Insecticidal effect (mortality grade), Test Example 1",[1],A (Mortality 100%)
same,"Insecticidal effect (mortality grade), Test Example 2",[2],E (Mortality less than 50%)
same,"Insecticidal effect (mortality grade), Test Example 3",[3],E (Mortality less than 50%)
CCN(CC)S(=O)(=O)CCCC(C)(C)NC(=O)c1c(I)cccc1C(=O)Nc1ccc(C(F)(C(F)(F)F)C(F)(F)F)cc1C [1-201],"Insecticidal effect (mortality grade), Test Example 1",[1],A (Mortality 100%)
same,"Insecticidal effect (mortality grade), Test Example 2",[2],A (Mortality 100%)
same,"Insecticidal effect (mortality grade), Test Example 3",[3],A (Mortality 100%)
Cc1cc(C(F)(C(F)(F)F)C(F)(F)F)ccc1NC(=O)c1cccc(I)c1C(=O)NC(C)CS(=O)(=O)NC(C)CS(C)(=O)=O (stereo not drawn) [1-93],"Insecticidal effect (mortality grade), Test Example 1",[1],A (Mortality 100%)
same,"Insecticidal effect (mortality grade), Test Example 2",[2],A (Mortality 100%)
same,"Insecticidal effect (mortality grade), Test Example 3",[3],A (Mortality 100%)
CCN(CC)S(=O)(=O)CC(C)NC(=O)c1c(Br)cccc1C(=O)Nc1ccc(C(F)(C(F)(F)F)C(F)(F)F)cc1C (stereo not drawn) [1-214],"Insecticidal effect (mortality grade), Test Example 1",[1],A (Mortality 100%)
same,"Insecticidal effect (mortality grade), Test Example 2",[2],A (Mortality 100%)
same,"Insecticidal effect (mortality grade), Test Example 3",[3],A (Mortality 100%)
Cc1cc(C(F)(C(F)(F)F)C(F)(F)F)ccc1NC(=O)c1cccc(Br)c1C(=O)NC(C)CS(=O)(=O)NCc1ccccc1 (stereo not drawn) [1-218],"Insecticidal effect (mortality grade), Test Example 1",[1],A (Mortality 100%)
same,"Insecticidal effect (mortality grade), Test Example 2",[2],A (Mortality 100%)
same,"Insecticidal effect (mortality grade), Test Example 3",[3],A (Mortality 100%)
Cc1cc(C(F)(C(F)(F)F)C(F)(F)F)ccc1NC(=O)c1cccc(I)c1C(=O)NC(C)CS(=O)(=O)NCc1ccccc1Br (stereo not drawn) [1-25],"Insecticidal effect (mortality grade), Test Example 1",[1],A (Mortality 100%)
same,"Insecticidal effect (mortality grade), Test Example 2",[2],A (Mortality 100%)
same,"Insecticidal effect (mortality grade), Test Example 3",[3],A (Mortality 100%)
COc1ccccc1CNS(=O)(=O)CC(C)NC(=O)c1c(I)cccc1C(=O)Nc1ccc(C(F)(C(F)(F)F)C(F)(F)F)cc1C (stereo not drawn) [1-27],"Insecticidal effect (mortality grade), Test Example 1",[1],A (Mortality 100%)
same,"Insecticidal effect (mortality grade), Test Example 2",[2],A (Mortality 100%)
same,"Insecticidal effect (mortality grade), Test Example 3",[3],A (Mortality 100%)
Cc1cc(C(F)(C(F)(F)F)C(F)(F)F)ccc1NC(=O)c1cccc(I)c1C(=O)NC(C)CS(N)(=O)=O (stereo not drawn) [1-1],"Insecticidal effect (mortality grade), Test Example 1",[1],A (Mortality 100%)
same,"Insecticidal effect (mortality grade), Test Example 2",[2],A (Mortality 100%)
same,"Insecticidal effect (mortality grade), Test Example 3",[3],A (Mortality 100%)
Cc1cc(C(F)(C(F)(F)F)C(F)(F)F)ccc1NC(=O)c1cccc(I)c1C(=O)NC(C)CS(=O)(=O)NCc1cccc(C#N)c1 (stereo not drawn) [1-31],"Insecticidal effect (mortality grade), Test Example 1",[1],A (Mortality 100%)
same,"Insecticidal effect (mortality grade), Test Example 2",[2],A (Mortality 100%)
same,"Insecticidal effect (mortality grade), Test Example 3",[3],A (Mortality 100%)
Cc1cc(C(F)(C(F)(F)F)C(F)(F)F)ccc1NC(=O)c1cccc(I)c1C(=O)NC(C)(C)CS(=O)(=O)N1CCCC1 [1-181],"Insecticidal effect (mortality grade), Test Example 1",[1],A (Mortality 100%)
same,"Insecticidal effect (mortality grade), Test Example 2",[2],A (Mortality 100%)
same,"Insecticidal effect (mortality grade), Test Example 3",[3],A (Mortality 100%)
C#CCNS(=O)(=O)CC(C)NC(=O)c1c(I)cccc1C(=O)Nc1ccc(C(F)(C(F)(F)F)C(F)(F)F)cc1C (stereo not drawn) [1-21],"Insecticidal effect (mortality grade), Test Example 1",[1],A (Mortality 100%)
same,"Insecticidal effect (mortality grade), Test Example 2",[2],A (Mortality 100%)
same,"Insecticidal effect (mortality grade), Test Example 3",[3],A (Mortality 100%)
"Cc1cc(C(F)(C(F)(F)F)C(F)(F)F)ccc1NC(=O)c1cccc(I)c1C(=O)NC(C)(C)CS(N)(=O)=O [1-175, 3-iodo-N^1-{2-methyl-4-[1,2,2,2-tetrafluoro-1-(trifluoromethyl)ethyl]phenyl}-N^2-(2-sulfamoyl-1,1-dimethylethyl)phthalamide]","Insecticidal effect (mortality grade), Test Example 1",[1],A (Mortality 100%)
same,"Insecticidal effect (mortality grade), Test Example 2",[2],A (Mortality 100%)
same,"Insecticidal effect (mortality grade), Test Example 3",[3],A (Mortality 100%)
Cc1cc(C(F)(C(F)(F)F)C(F)(F)F)ccc1NC(=O)c1cccc(I)c1C(=O)NC(C)(C)CS(=O)(=O)NCC[S+]([O-])c1ccccc1 (stereo not drawn) [1-88],"Insecticidal effect (mortality grade), Test Example 1",[1],A (Mortality 100%)
same,"Insecticidal effect (mortality grade), Test Example 2",[2],A (Mortality 100%)
same,"Insecticidal effect (mortality grade), Test Example 3",[3],A (Mortality 100%)
CCNS(=O)(=O)CC(C)NC(=O)c1c(I)cccc1C(=O)Nc1ccc(OC(F)(F)F)cc1C (stereo not drawn) [1-275],"Insecticidal effect (mortality grade), Test Example 1",[1],A (Mortality 100%)
same,"Insecticidal effect (mortality grade), Test Example 2",[2],E (Mortality less than 50%)
same,"Insecticidal effect (mortality grade), Test Example 3",[3],E (Mortality less than 50%)
Cc1cc(C(F)(C(F)(F)F)C(F)(F)F)ccc1NC(=O)c1cccc(I)c1C(=O)NC(C)CS(=O)(=O)Nc1ccccc1 (stereo not drawn) [1-106],"Insecticidal effect (mortality grade), Test Example 1",[1],A (Mortality 100%)
same,"Insecticidal effect (mortality grade), Test Example 2",[2],E (Mortality less than 50%)
same,"Insecticidal effect (mortality grade), Test Example 3",[3],E (Mortality less than 50%)
CCN(CC)S(=O)(=O)CC(C)(C)NC(=O)c1c(Br)cccc1C(=O)Nc1ccc(C(F)(C(F)(F)F)C(F)(F)F)cc1C [1-219],"Insecticidal effect (mortality grade), Test Example 1",[1],A (Mortality 100%)
same,"Insecticidal effect (mortality grade), Test Example 2",[2],A (Mortality 100%)
same,"Insecticidal effect (mortality grade), Test Example 3",[3],A (Mortality 100%)
Cc1cc(C(F)(C(F)(F)F)C(F)(F)F)ccc1NC(=O)c1cccc(I)c1C(=O)NC(C)(C)CS(=O)(=O)NCC[S+](C)[O-] (stereo not drawn) [1-82],"Insecticidal effect (mortality grade), Test Example 1",[1],A (Mortality 100%)
same,"Insecticidal effect (mortality grade), Test Example 2",[2],A (Mortality 100%)
same,"Insecticidal effect (mortality grade), Test Example 3",[3],A (Mortality 100%)
Cc1cc(C(F)(C(F)(F)F)C(F)(F)F)ccc1NC(=O)c1cccc(I)c1C(=O)N[C@@H](C)CS(=O)(=O)N[C@@H](C)CS(C)(=O)=O [1-149],"Insecticidal effect (mortality grade), Test Example 1",[1],A (Mortality 100%)
same,"Insecticidal effect (mortality grade), Test Example 2",[2],A (Mortality 100%)
same,"Insecticidal effect (mortality grade), Test Example 3",[3],A (Mortality 100%)
